From patent publication US11639329B2, “Lipids for use in lipid nanoparticle formulations” (ACUITAS THERAPEUTICS, INC., priority 2017, dated 2023)

Assays:
[1] = test system: luciferase expression in the liver (FLuc mRNA); assay: Luciferase mRNA in vivo evaluation using lipid nanoparticle compositions; parameters: species or system mice (C57BL/6, CD-1); details: LNP with FLuc mRNA, tail vein injection, liver 4 hours after administration; for Liver Luc (ng luc/g liver), *dosed at 0.3 mg/kg: dosed at 0.3 mg/kg (footnote *); for Liver Luc @ 0.5 mg/kg (ng luc/g liver): 0.5 mg mRNA/kg
Method: A lipid of structure (I), DSPC, cholesterol and PEG-lipid were solubilized in ethanol at a molar ratio of 50:10:38.5:1.5 or 47.5:10:40.8:1.7. Lipid nanoparticles (LNP) were prepared at a total lipid to mRNA weight ratio of approximately 10:1 to 30:1. Briefly, the mRNA was diluted to 0.2 mg/mL in 10 to 50 mM citrate buffer, pH 4. Syringe pumps were used to mix the ethanolic lipid solution with the mRNA aqueous solution at a ratio of about 1:5 to 1:3 (vol/vol) with total flow rates above 15 mL/min. The ethanol was then removed and the external buffer replaced with PBS by dialysis. Finally, the lipid nanoparticles were filtered through a 0.2 μm pore sterile filter.
Studies were performed in 6-8 week old female C57BL/6 mice (Charles River) 8-10 week old CD-1 (Harlan) mice (Charles River) according to guidelines established by an institutional animal care committee (ACC) and the Canadian Council on Animal Care (CCAC). Varying doses of mRNA-lipid nanoparticle were systemically administered by tail vein injection and animals euthanized at a specific time point (e.g., 4 hours) post-administration. Liver and spleen were collected in pre-weighed tubes, weights determined, immediately snap frozen in liquid nitrogen and stored at −80° C. until processing for analysis.
For liver, approximately 50 mg was dissected for analyses in a 2 mL FastPrep tubes (MP Biomedicals, Solon OH). ¼″ ceramic sphere (MP Biomedicals) was added to each tube and 500 μL of Glo Lysis Buffer—GLB (Promega, Madison Wis.) equilibrated to room temperature was added to liver tissue. Liver tissues were homogenized with the FastPrep24 instrument (MP Biomedicals) at 2×6.0 m/s for 15 seconds. Homogenate was incubated at room temperature for 5 minutes prior to a 1:4 dilution in GLB and assessed using SteadyGlo Luciferase assay system (Promega). Specifically, 50 μL of diluted tissue homogenate was reacted with 50 μL of SteadyGlo substrate, shaken for 10 seconds followed by 5 minute incubation and then quantitated using a CentroXS^3 LB 960 luminometer (Berthold Technologies, Germany). The amount of protein assayed was determined by using the BCA protein assay kit (Pierce, Rockford, Ill.). Relative luminescence units (RLU) were then normalized to total μg protein assayed. To convert RLU to ng luciferase a standard curve was generated with QuantiLum Recombinant Luciferase (Promega).
The FLuc mRNA (L-6107or L-7602) from Trilink Biotechnologies will express a luciferase protein, originally isolated from the firefly, photinus pyralis. FLuc is commonly used in mammalian cell culture to measure both gene expression and cell viability. It emits bioluminescence in the presence of the substrate, luciferin. This capped and polyadenylated mRNA is fully substituted with 5-methylcytidine and pseudouridine.
Compounds of structure (I) were formulated using the following molar ratio: 47.5% cationic lipid/ 10% distearoylphosphatidylcholine (DSPC)/40.8% Cholesterol/1.7% PEG lipid (“PEG-DMA” 2-[2-(ω-methoxy(polyethyleneglycol2000)ethoxy]-N,N-ditetradecylacetamide). Relative activity was determined by measuring luciferase expression in the liver 4 hours following administration via tail vein injection as described in Example 1.
The cationic lipids shown in Table 2 have previously been tested with nucleic acids. For comparative purposes, these lipids were also used to formulate lipid nanoparticles containing the FLue mRNA (L-6107) using an in line mixing method, as described in Example 1 and in PCT/US10/22614, which is hereby incorporated by reference in its entirety. Lipid nanoparticles may be formulated using the following molar ratio: 50% Cationic lipid/10% distearoylphosphatidylcholine (DSPC)/38.5% Cholesterol/1.5% PEG lipid (“PEG-DMG”, i.e., 1-(monomethoxy-polyethyleneglycol)-2,3-dimyristoylglycerol, with an average PEG molecular weight of 2000). In alternate embodiments, cationic lipid, DSPC, cholesterol and PEG-lipid are formulated at a molar ratio of approximately 47.5:10:40.8:1.7. […]

[2] = Determination of pKa of formulated lipids (TNS fluorescence assay in lipid nanoparticles); type: physicochemical; details: probe TNS (2-(p-toluidino)-6-napthalene sulfonic acid); lipid formulated in LNP (compound/DSPC/cholesterol/PEG-lipid); pH giving half-maximal TNS fluorescence
Source text: As described elsewhere, the pKa of formulated lipids is correlated with the effectiveness of LNPs for delivery of nucleic acids (see Jayaraman et al, Angewandte Chemie, International Edition (2012), 51(34), 8529-8533; Semple et al, Nature Biotechnology 28, 172-176 (2010)). In some embodiments, the preferred range of pKa is ˜5 to ˜7. […] Lipid nanoparticles comprising compound of structure (I)/DSPC/cholesterol/PEG-lipid (50/10/38.5/1.5 or 47.5:10:40.8:1.7 mol %) in PBS at a concentration of 0.4 mM total lipid were prepared using the in-line process as described in Example 1. TNS was prepared as a 100 μM stock solution in distilled water. Vesicles were diluted to 24 μM lipid in 2 mL of buffered solutions containing 10 mM HEPES, 10 mM MES, 10 mM ammonium acetate, and 130 mM NaCl, where the pH ranged from 2.5 to 11. An aliquot of the TNS solution was added to give a final concentration of 1 μM and following vortex mixing fluorescence intensity was measured at room temperature in a SLM Aminco Series 2 Luminescence Spectrophotometer using excitation and emission wavelengths of 321 nm and 445 nm. A sigmoidal best fit analysis was applied to the fluorescence data and the pKa was measured as the pH giving rise to half-maximal fluorescence intensity.

| SMILES | Liver Luc (ng luc/g liver), *dosed at 0.3 mg/kg [1] | pKa [2] | Liver Luc @ 0.5 mg/kg (ng luc/g liver) [1] [ng luc/g liver] |
| --- | --- | --- | --- |
| CCCCCCCCCN(CCO)CCN(CCCCCC(=O)OCC(CCCCCC)CCCCCCCC)CCCCCC(=O)OCC(CCCCCC)CCCCCCCC (centres unmarked) [Compound 1] | 330 ± 70* ng luc/g liver | 5.83 | – |
| CCCCCCCCCN(CCCO)CCN(CCCCCC(=O)OCC(CCCCCC)CCCCCCCC)CCCCCC(=O)OCC(CCCCCC)CCCCCCCC (centres unmarked) [Compound 2] | 553 ± 291* ng luc/g liver | 5.76 | – |
| CCCCCCCCC(CCCCCC)COC(=O)CCCCCCCN(CCCCCCCC(=O)OCC(CCCCCC)CCCCCCCC)CCN(CCO)CCCO (centres unmarked) [Compound 3] | – | 7.18 | – |
| CCCCCCCCC(CCCCCC)COC(=O)CCCCCN(CCCCCC(=O)OCC(CCCCCC)CCCCCCCC)CCN(C)CCO (centres unmarked) [Compound 4] | 50 ± 14* ng luc/g liver | 6.91 | – |
| CCCCCCCCC(CCCCCC)COC(=O)CCCCCN(CCCCCC(=O)OCC(CCCCCC)CCCCCCCC)CCN(C)CCCCCCCCCO (centres unmarked) [Compound 5] | – | 6.17 | 1597 ± 456 |
| CCCCCCCCC(CCCCCC)COC(=O)CCCCCCCN(CCCCCCCC(=O)OCC(CCCCCC)CCCCCCCC)CCN(CC)CCCO (centres unmarked) [Compound 6] | – | 6.82 | – |
| CCCCCCCCC(CCCCCC)COC(=O)CCCCCN(CCCCCC(=O)OCC(CCCCCC)CCCCCCCC)CCN(C)CCCCCCO (centres unmarked) [Compound 7] | – | 6.69 | 16 ± 14 |
| CCCCCCC(CCCC)C(=O)OCCCCCCCCCN(CCCCCCCCCOC(=O)C(CCCC)CCCCCC)CCN(C)CCCCCCCCCO (centres unmarked) [Compound 8] | – | 6.08 | 54 ± 10 |
